From US20180282415A1, “Combination of a PD-1 Axis Binding Antagonist and an ALK Inhibitor for Treating ALK-Negative Cancer” (Merck Patent GmbH, priority 2015, published 2018)

What was measured:
[1] = tested on: CD3/CD28-stimulated effector cells (T cells from healthy donors' PBMCs); test: T cell proliferation assay (3H thymidine incorporation), CD3/CD28-stimulated T cells; format: cell-based, human; settings: for Thymidine incorporation(CPM): log[Agonist]
Description: (§1) Briefly, human cells were isolated from healthy donors' PBMCs by using EasySep™ Human T Cell Enrichment Kit (Stemcell Technologies) according to manufacturer's instruction. […] Culture supernatants were collected on Day 2 or 3 for cytokine analysis. Plates were then harvested on DNA specific filter papers (Perkin Elmer) using Harvester96 (Tomtec Life Sciences). The radiolabeled filters were covered with beta scintillation liquid (Perkin Elmer) and read in Microbeta® counter plates (Perkin Elmer). ^3H Thymidine was pulsed on Day 2 for T cell proliferation assay.

activated T cells = test: T cell viability, Cell-Titer Glo Luminescent Cell Viability Assay; format: cell-based, human; settings: for Luciferase RLU (T cell viability): log[Agonist]
Protocol: as §1, with “instruction. […] Cells were cultured in RPMI 1640 medium supplemented with 10% FCS and 100 I.U./mL penicillin/streptomycin in humidified incubator at 37° C. with 5% CO2.” for “instruction.”, “assay. The impact by sunitinib and axitinib on T cell proliferation and viability were repeated as previously published (FIGS. 1A and 1B).” for “assay.”
Cell viability was measured by Cell-Titer Glo Luminescent Cell Viability Assay® (Promega, Madison). […] Table 4 below provides the Luciferase RLU values reflecting T cell viability for each of the respective inhibitors.

CT26 colon carcinoma = test: In vivo tumor efficacy, CT26 model, crizotinib or alectinib with anti-PD-L1 (Example 3); set-up: species or system Balb/c mice
Description: (§2) CT26 colon carcinoma cell line has published mutanome and transcriptome data, with no known ALK fusion events or oncogenic mutations. Castle et al, BMC Genomics, 15:190 (13 Mar. 2014); Castle et al, CAN 11:3722 (11 Jan. 2012).
(§3) Six- to eight-week old female Balb/c or C57BL/6 mice were purchased from The Jackson Laboratories.
CT26 cell lines, anti-PD-L1 antibody and Rat IgG isotypes (IgG2a and IgG2b) were purchased from BioXCell (clones 2A3 and LTF2, respectively) and prepared as described in Example 2 above. […]

MC38 colon carcinoma [2] = test: In vivo tumor efficacy, MC38 model, crizotinib with anti-PD-L1 (Example 3); set-up: species or system C57BL/6 mice; settings: crizotinib 40 mg/kg, anti-mPDL1 10 mg/kg
Protocol: as §2, §3
MC38 colon carcinoma cell line was kindly provided by Dr. Antoni Ribas at UCLA, California. Cells were cultured in DMEM medium supplemented with 10% fetal bovine serum, and 100 I.U./mL penicillin/streptomycin at 37° C. in an atmosphere of 5% CO2 in air, and IMPACT-tested for pathogens at Research Animal Diagnostic Laboratory (RADIL) (Columbia, Mo.). Pathogen-free cells growing in an exponential growth phase were harvested and used for tumor inoculation.
For the MC38 study, C57BL/6 mice were inoculated subcutaneously in the right lower flank with 0.2×10^6 MC38 colon carcinoma cells. When tumor bearing mice achieved a mean tumor volume of 50 to 150 mm^3, mice were randomly assigned to 1 of 4 treatment groups, n=10.

MC38 colon carcinoma [3] = test: In vivo tumor efficacy, MC38 model, crizotinib with avelumab (Example 5); set-up: species or system C57BL/6 mice; settings: for Tumor Volume (Mean ± SEM): avelumab 20 mg/kg i.p., crizotinib 40 mg/kg orally QD; for TGI: compared with the isotype control antibody treated group, avelumab 20 mg/kg, crizotinib 40 mg/kg
Protocol: Avelumab is a fully human IgG1 antibody that recognizes both human and mouse PD-L1. […] Six- to eight-week old female C57BL/6 mice were purchased from The Jackson Laboratories (Farmington, Conn.). Mice were maintained and all animal experiments were conducted according to the protocols approved by the Institutional Animal Care and Use Committee of Rinat, South San Francisco and Worldwide Research and Development (WRD), La Jolla, Pfizer Inc. MC38 colon carcinoma cell line was kindly provided by Dr. Antoni Ribas at UCLA, California. Cells were cultured in DMEM medium supplemented with 10% fetal bovine serum, and 100 I.U./mL penicillin/streptomycin at 37° C. in an atmosphere of 5% CO2 in air, and IMPACT-tested for pathogens at Research Animal Diagnostic Laboratory (RADIL) (Columbia, Mo.). Pathogen-free cells growing in an exponential growth phase were harvested and used for tumor inoculation. […] Human IgG1 was prepared in-house (Lot No. NB123249p192CA110124). […] Body weight was recorded weekly. […] Mice were monitored for tumor growth and body weight changes.

C[C@@H](Oc1cc(-c2cnn(C3CCNCC3)c2)cnc1N)c1c(Cl)ccc(F)c1Cl [crizotinib, 3-[(1R)-1-(2,6-dichloro-3-fluorophenyl)ethoxy]-5-(1-piperidin-4-ylpyrazol-4-yl)pyridin-2-amine]
Effect on T cell proliferation ([1]; activated T cells, FIG. 1A): did not have adverse effects on T cell proliferation
Thymidine incorporation(CPM) ([1]; μM: 0): 432360.3 ± 29488.63 CPM
Thymidine incorporation(CPM) ([1]; μM: 1): 436099.3 ± 34171.33 CPM
Thymidine incorporation(CPM) ([1]; μM: 2): 270672.7 ± 18298.53 CPM
Thymidine incorporation(CPM) ([1]; μM: −1): 438641 ± 47103.88 CPM
Thymidine incorporation(CPM) ([1]; μM: −2): 442995.3 ± 42508.08 CPM
Thymidine incorporation(CPM) ([1]; μM: −3): 421221.3 ± 24333.6 CPM
Effect on T cell viability (activated T cells; FIG. 1B): did not result in dose-dependent decreases in T cell viability
Luciferase RLU (T cell viability) (activated T cells; μM: 0): 94.22 ± 1.814 RLU
Luciferase RLU (T cell viability) (activated T cells; μM: 1): 91.72 ± 2.354 RLU
Luciferase RLU (T cell viability) (activated T cells; μM: 2): 64.24 ± 3.748 RLU
Luciferase RLU (T cell viability) (activated T cells; μM: 3): 1.474 ± 0.1693 RLU
Luciferase RLU (T cell viability) (activated T cells; μM: −1): 95.6927 ± 1.827 RLU
Luciferase RLU (T cell viability) (activated T cells; μM: −2): 93.68 ± 1.564 RLU
Luciferase RLU (T cell viability) (activated T cells; μM: −3): 89.08 ± 2.843 RLU
Tumor Volume (Mean ± SEM) (CT26 colon carcinoma; Day 7, crizotinib 5 mg/kg (alone or with anti-mPDL1)): 90.3 ± 8.1 mm^3
Tumor Volume (Mean ± SEM) (CT26 colon carcinoma; Day 7, crizotinib 20 mg/kg (alone or with anti-mPDL1)): 90.3 ± 8.0 mm^3
Tumor Volume (Mean ± SEM) (CT26 colon carcinoma; Day 7, crizotinib 40 mg/kg (alone or with anti-mPDL1)): 94.4 ± 7.9 mm^3
Tumor Volume (Mean ± SEM) (CT26 colon carcinoma; Day 10, crizotinib 5 mg/kg (alone or with anti-mPDL1)): 140.9 ± 18.0 mm^3
Tumor Volume (Mean ± SEM) (CT26 colon carcinoma; Day 10, crizotinib 20 mg/kg (alone or with anti-mPDL1)): 156.1 ± 21.9 mm^3
Tumor Volume (Mean ± SEM) (CT26 colon carcinoma; Day 10, crizotinib 40 mg/kg (alone or with anti-mPDL1)): 127.0 ± 9.8 mm^3
Tumor Volume (Mean ± SEM) (CT26 colon carcinoma; Day 14, crizotinib 5 mg/kg (alone or with anti-mPDL1)): 246.6 ± 54.7 mm^3
Tumor Volume (Mean ± SEM) (CT26 colon carcinoma; Day 14, crizotinib 20 mg/kg (alone or with anti-mPDL1)): 234.2 ± 49.0 mm^3
Tumor Volume (Mean ± SEM) (CT26 colon carcinoma; Day 14, crizotinib 40 mg/kg (alone or with anti-mPDL1)): 218.5 ± 31.5 mm^3
Tumor Volume (Mean ± SEM) (CT26 colon carcinoma; Day 18, crizotinib 5 mg/kg (alone or with anti-mPDL1)): 407.1 ± 122.2 mm^3
Tumor Volume (Mean ± SEM) (CT26 colon carcinoma; Day 18, crizotinib 20 mg/kg (alone or with anti-mPDL1)): 299.3 ± 67.1 mm^3
Tumor Volume (Mean ± SEM) (CT26 colon carcinoma; Day 18, crizotinib 40 mg/kg (alone or with anti-mPDL1)): 319.6 ± 47.7 mm^3
Tumor Volume (Mean ± SEM) (CT26 colon carcinoma; Day 22, crizotinib 5 mg/kg (alone or with anti-mPDL1)): 749.8 ± 220.0 mm^3
Tumor Volume (Mean ± SEM) (CT26 colon carcinoma; Day 22, crizotinib 20 mg/kg (alone or with anti-mPDL1)): 631.3 ± 158.5 mm^3
Tumor Volume (Mean ± SEM) (CT26 colon carcinoma; Day 22, crizotinib 40 mg/kg (alone or with anti-mPDL1)): 685.3 ± 101.1 mm^3
Tumor Volume (Mean ± SEM) (CT26 colon carcinoma; Day 25, crizotinib 5 mg/kg (alone or with anti-mPDL1)): 1161.1 ± 415.4 mm^3
Tumor Volume (Mean ± SEM) (CT26 colon carcinoma; Day 25, crizotinib 20 mg/kg (alone or with anti-mPDL1)): 934.9 ± 223.8 mm^3
Tumor Volume (Mean ± SEM) (CT26 colon carcinoma; Day 25, crizotinib 40 mg/kg (alone or with anti-mPDL1)): 1074.5 ± 136.2 mm^3
Anti-tumor effect in CT26 model (CT26 colon carcinoma; compared to isotype control or single agents): no anti-tumor effects
Tumor Volume (Mean ± SEM) (MC38 colon carcinoma [2]; Day 7): 78.1 ± 6.0 mm^3
Tumor Volume (Mean ± SEM) (MC38 colon carcinoma [2]; Day 14): 169.7 ± 16.3 mm^3
Tumor Volume (Mean ± SEM) (MC38 colon carcinoma [2]; Day 19): 291.7 ± 26.2 mm^3
Tumor Volume (Mean ± SEM) (MC38 colon carcinoma [2]; Day 24): 580.5 ± 67.0 mm^3
Tumor Volume (Mean ± SEM) (MC38 colon carcinoma [2]; Day 27): 836.5 ± 137.8 mm^3
Tumor Volume (Mean ± SEM) (MC38 colon carcinoma [3]; Day 7): 78.1 ± 6.0 mm^3
Tumor Volume (Mean ± SEM) (MC38 colon carcinoma [3]; Day 14): 169.7 ± 16.3 mm^3
Tumor Volume (Mean ± SEM) (MC38 colon carcinoma [3]; Day 19): 291.7 ± 26.2 mm^3
Tumor Volume (Mean ± SEM) (MC38 colon carcinoma [3]; Day 24): 580.5 ± 67.0 mm^3
Tumor Volume (Mean ± SEM) (MC38 colon carcinoma [3]; Day 27): 836.5 ± 137.8 mm^3
TGI (MC38 colon carcinoma [3]): 48.5%

CCN(CC)CCNC(=O)c1c(C)[nH]c(/C=C2\C(=O)Nc3ccc(F)cc32)c1C [Sunitinib, sunitinib]
Thymidine incorporation(CPM) ([1]; μM: 0): 493570.3 ± 59347.45 CPM
Thymidine incorporation(CPM) ([1]; μM: 1): 332 ± 105.9733 CPM
Thymidine incorporation(CPM) ([1]; μM: 2): 117.3333 ± 16.23 CPM
Thymidine incorporation(CPM) ([1]; μM: 3): 171 ± 25 CPM
Thymidine incorporation(CPM) ([1]; μM: −1): 468847.7 ± 39073.88 CPM
Thymidine incorporation(CPM) ([1]; μM: −2): 444679.3 ± 13911.18 CPM
Thymidine incorporation(CPM) ([1]; μM: −3): 469071 ± 48070.7 CPM
Luciferase RLU (T cell viability) (activated T cells; μM: 0): 98.24 ± 2.169 RLU
Luciferase RLU (T cell viability) (activated T cells; μM: 1): 13.95 ± 7.493 RLU
Luciferase RLU (T cell viability) (activated T cells; μM: 2): 0.8502 ± 0.2596 RLU
Luciferase RLU (T cell viability) (activated T cells; μM: 3): 1.827 RLU
Luciferase RLU (T cell viability) (activated T cells; μM: −1): 91.57 ± 2.195 RLU
Luciferase RLU (T cell viability) (activated T cells; μM: −2): 98.04 ± 2.634 RLU
Luciferase RLU (T cell viability) (activated T cells; μM: −3): 96.57 ± 1.711 RLU

CCc1cc2c(cc1N1CCC(N3CCOCC3)CC1)C(C)(C)c1[nH]c3cc(C#N)ccc3c1C2=O [Alectinib, alectinib]
Tumor Volume (Mean ± SEM) (CT26 colon carcinoma; Day 7, alectinib study, alectinib 60 mg/kg, anti-mPDL1 10 mg/kg): 119.1 ± 12.5 mm^3
Tumor Volume (Mean ± SEM) (CT26 colon carcinoma; Day 14, alectinib study, alectinib 60 mg/kg, anti-mPDL1 10 mg/kg): 293.4 ± 54.2 mm^3
Tumor Volume (Mean ± SEM) (CT26 colon carcinoma; Day 19, alectinib study, alectinib 60 mg/kg, anti-mPDL1 10 mg/kg): 546.8 ± 98.0 mm^3
Tumor Volume (Mean ± SEM) (CT26 colon carcinoma; Day 24, alectinib study, alectinib 60 mg/kg, anti-mPDL1 10 mg/kg): 1114.2 ± 217.0 mm^3
Tumor Volume (Mean ± SEM) (CT26 colon carcinoma; Day 27, alectinib study, alectinib 60 mg/kg, anti-mPDL1 10 mg/kg): 1892.5 ± 283.1 mm^3

B1: Avelumab: fully human IgG1 antibody that recognizes both human and mouse PD-L1 (antibody, V domains shown)
VH: EVQLLESGGGLVQPGGSLRLSCAASGFTFSSYIMWVRQAPGKGLEWVSSIYPSGGITFYADKGRFTISRDNSKNTLYLQMNSLRAEDTAVYYCARIKLGTVTTVDYWGQGTLVTVSS
VL: QSALTQPASVSGSPGQSITISCTGTSSDVGGYNYVSWYQQHPGKAPKLMIYDVSNRPSGVSNRFSGSKSGNTASLTISGLQAEDEADYYCSSYTSSSTRVFGTGTKVTVL
Tumor Volume (Mean ± SEM) (MC38 colon carcinoma [3]; Day 7): 78.3 ± 5.4 mm^3
Tumor Volume (Mean ± SEM) (MC38 colon carcinoma [3]; Day 14): 145.5 ± 11.0 mm^3
Tumor Volume (Mean ± SEM) (MC38 colon carcinoma [3]; Day 19): 307.1 ± 25.5 mm^3
Tumor Volume (Mean ± SEM) (MC38 colon carcinoma [3]; Day 24): 535.0 ± 62.0 mm^3
Tumor Volume (Mean ± SEM) (MC38 colon carcinoma [3]; Day 27): 817.7 ± 87.2 mm^3
TGI (MC38 colon carcinoma [3]): 49.7%
